Results published in the supplement of paper PMC4862054.

Assays:
Conditions in all cases: incubation time: 72 h
BT-549 [1] = experiment: normalised viability (% of control), CellTiter-Blue; higher = more viable cells (about 100 = DMSO control)
Summary of the method: (§1)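 Seeded at 20 µl suspension per well onto compound-loaded 384-well plates, breast cancer cell lines were incubated 72 h. CellTiter-Blue fluorescence at 560/590 nm was then read, with each plate normalised to vehicle (100) and a positive kill control (0). Normalised viability is reported at a single listed concentration of the series.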

CAL-148 [2] = experiment: as above
Summary of the method: as §1

CAL-85-1 = experiment: as above
Summary of the method: as §1

DU-4475 [3] = experiment: as above
Summary of the method: as §1

HCC1599 = experiment: as above
Summary of the method: as §1

Hs578T [4] = experiment: as above
Summary of the method: as §1

MDA-MB-436 [5] = experiment: as above
Summary of the method: as §1

MDA-MB-453 [6] = experiment: as above
Summary of the method: as §1

BT-474 = experiment: normalised response (% of control), CellTiter-Glo; higher = more viable cells (100 = DMSO, 0 = benzethonium chloride kill control)
Summary of the method: (§2)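 Normalised signals at single concentrations make up the values. They come from breast cancer cell lines seeded (20 µl suspension) into 384-well plates with compound at 5 concentrations in 10-fold steps over a compound-specific 10,000-fold range, incubated 72 h, and read for CellTox Green fluorescence then CellTiter-Glo luminescence. Each plate was normalised to 0.1 % DMSO (100) and a positive kill control (0).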

BT-549 [7] = experiment: as above
Summary of the method: as §2

CAL-148 [8] = experiment: as above
Summary of the method: as §2

CAL-51 = experiment: as above
Summary of the method: as §2

DU-4475 [9] = experiment: as above
Summary of the method: as §2

HCC1143 = experiment: as above
Summary of the method: as §2

HCC1937 = experiment: as above
Summary of the method: as §2

HDQ-P1 = experiment: as above
Summary of the method: as §2

Hs578T [10] = experiment: as above
Summary of the method: as §2

MCF-10A = experiment: as above
Summary of the method: as §2

MDA-MB-436 [11] = experiment: as above
Summary of the method: as §2

MDA-MB-453 [12] = experiment: as above
Summary of the method: as §2

MDA-MB-468 = experiment: as above
Summary of the method: as §2

MFM-223 = experiment: as above
Summary of the method: as §2

SK-BR-3 = experiment: as above
Summary of the method: as §2

Row | Structure (SMILES) | normalised viability (BT-549 [1]; 10 nM) [%] | normalised viability (BT-549 [1]; 1000 nM) [%] | normalised viability (BT-549 [1]; 10000 nM) [%] | normalised viability (CAL-148 [2]; 3 nM) [%] | normalised viability (CAL-148 [2]; 30 nM) [%] | normalised viability (CAL-148 [2]; 100 nM) [%] | normalised viability (CAL-85-1; 3 nM) [%] | normalised viability (CAL-85-1; 30 nM) [%] | normalised viability (CAL-85-1; 100 nM) [%] | normalised viability (DU-4475 [3]; 3 nM) [%] | normalised viability (DU-4475 [3]; 30 nM) [%] | normalised viability (DU-4475 [3]; 100 nM) [%] | normalised viability (HCC1599; 10 nM) [%] | normalised viability (HCC1599; 1000 nM) [%] | normalised viability (HCC1599; 10000 nM) [%] | normalised viability (Hs578T [4]; 10 nM) [%] | normalised viability (Hs578T [4]; 1000 nM) [%] | normalised viability (Hs578T [4]; 10000 nM) [%] | normalised viability (MDA-MB-436 [5]; 10 nM) [%] | normalised viability (MDA-MB-436 [5]; 1000 nM) [%] | normalised viability (MDA-MB-436 [5]; 10000 nM) [%] | normalised viability (MDA-MB-453 [6]; 3 nM) [%] | normalised viability (MDA-MB-453 [6]; 30 nM) [%] | normalised viability (MDA-MB-453 [6]; 100 nM) [%] | normalised response (BT-474) [%] | normalised response (BT-549 [7]) [%] | normalised response (CAL-148 [8]) [%] | normalised response (CAL-51) [%] | normalised response (DU-4475 [9]) [%] | normalised response (HCC1143) [%] | normalised response (HCC1937) [%] | normalised response (HDQ-P1) [%] | normalised response (Hs578T [10]) [%] | normalised response (MCF-10A) [%] | normalised response (MDA-MB-436 [11]) [%] | normalised response (MDA-MB-453 [12]) [%] | normalised response (MDA-MB-468) [%] | normalised response (MFM-223) [%] | normalised response (SK-BR-3) [%]
1 | CN(C)/N=N/c1[nH]cnc1C(N)=O [Dacarbazine] | 103 | 89.2 | 106 | 84.4 | 96 | 99.2 | 95.8 | 84.6 | 90.5 | 90.4 | 89.6 | 92.4 | 93.8 | 97.1 | 86.7 | 119 | 113 | 94.8 | 100 | 78.7 | 93.8 | 103 | 102 | 102 | – | – | – | – | – | – | – | – | – | – | – | – | – | – | –
2 | CN(C)/N=N/c1[nH]cnc1C(N)=O [Dacarbazine] (1000 nM) | – | – | – | – | – | – | – | – | – | – | – | – | – | – | – | – | – | – | – | – | – | – | – | – | 101 | 101 | 97.8 | 91.2 | 101 | 103 | 101 | 95.4 | 105 | 104 | 101 | 104 | 117 | 105 | 102
3 | Cc1ccc(-n2nc(C(C)(C)C)cc2NC(=O)Nc2ccc(OCCN3CCOCC3)c3ccccc23)cc1 [Doramapimod] | 98.1 | 104 | 84.7 | 90 | 90.9 | 87.5 | 94.4 | 85.4 | 80.4 | 123 | 89.1 | 97.1 | 93.8 | 110 | 91.2 | 111 | 120 | 113 | 84.4 | 33.9 | 71.5 | 109 | 105 | 106 | – | – | – | – | – | – | – | – | – | – | – | – | – | – | –
4 | C[C@]12CC[C@@H]3c4ccc(O)cc4C[C@@H](CCCCCCCCC[S+]([O-])CCCC(F)(F)C(F)(F)F)[C@H]3[C@@H]1CC[C@@H]2O (some centres not stated) [Fulvestrant] | 74.7 | 86.5 | 74.8 | 89 | 87.5 | 87.3 | 91.8 | 91.7 | 90.3 | 91.6 | 78 | 91.5 | 93.9 | 82.6 | 92.4 | 103 | 91.7 | 86.2 | 94.4 | 97.5 | 90.6 | 108 | 81.1 | 93.7 | – | – | – | – | – | – | – | – | – | – | – | – | – | – | –
